Experimental data as given in ChEMBL document CHEMBL5316275 (J Med Chem, 2023).

Target: Albumin (Homo sapiens, UniProt P02768)
Test: Binding affinity to human serum albumin assessed as association constant measured after 18 hrs by equilibrium dialysis method

Sequence of Albumin (P02768 whole entry): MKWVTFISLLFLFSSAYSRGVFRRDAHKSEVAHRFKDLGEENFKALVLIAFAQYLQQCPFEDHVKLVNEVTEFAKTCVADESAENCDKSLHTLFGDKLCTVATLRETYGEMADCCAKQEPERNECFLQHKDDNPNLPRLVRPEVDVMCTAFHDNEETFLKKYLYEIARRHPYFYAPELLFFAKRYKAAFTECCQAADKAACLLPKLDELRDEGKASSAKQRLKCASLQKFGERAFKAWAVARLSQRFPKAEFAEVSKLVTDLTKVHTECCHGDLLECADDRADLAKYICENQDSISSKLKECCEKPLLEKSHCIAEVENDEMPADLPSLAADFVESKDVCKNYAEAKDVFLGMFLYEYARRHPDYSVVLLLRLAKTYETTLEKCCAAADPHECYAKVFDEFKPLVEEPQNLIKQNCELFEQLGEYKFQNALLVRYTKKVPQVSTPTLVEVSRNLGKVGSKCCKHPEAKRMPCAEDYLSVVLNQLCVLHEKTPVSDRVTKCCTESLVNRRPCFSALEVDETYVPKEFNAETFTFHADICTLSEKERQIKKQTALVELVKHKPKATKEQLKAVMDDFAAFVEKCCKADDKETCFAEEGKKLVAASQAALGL

K	SMILES
1.91 10^5/M	COC(=O)CC/C(C)=C/Cc1c(O)c2c(c(C)c1OC)COC2=O
0.83 10^5/M	COc1c(C)c2c(c(O)c1C/C=C(\C)CCC(=O)OCCN1CCOCC1)C(=O)OC2 [MYCOPHENOLATE MOFETIL]
